Read-outs that look alike come from different tables or passages of the source.
Key:
Type in all cases: cell-based
[1] = MTS proliferation assay (72 h read-out); conditions: MRC5 cells
How it was run: (§1)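 Viability was read by MTS absorbance at 492 nm after 3 h with reagent. Before that, cells plated a day earlier at 1.5×10^3–10^4 per well had been incubated with test compound at final concentrations of 0.001–10 μM for 72 h; activity is given as category scores A–D.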

[2] = system: tumor cells; assay: MTS proliferation assay (72 h read-out)
How it was run: as §1

[3] = Mitochondrial membrane potential, JC-1 (read-out 48 h); conditions: PBL, JC-1, 48 h
How it was run: (§2)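 Tumor cells were treated with test compounds (adherent cells after 24 h of attachment, suspension cells immediately), medium holding up to 5% DMSO. After 48 h, JC-1 (2-5 μg/ml in added medium) was applied for 30 min. Fluorescence microscopy (FITC/TRITC filters) scored the fraction of cells with dissipated mitochondrial membrane potential as categories A-D.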

[4] = system: tumor cells; assay: as above; conditions: JC-1, 48 h
How it was run: as §2

[5] = Hoechst 33342 nuclear staining (48 h read-out)
How it was run: (§3)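 Adherent cells pre-spread 24 h before dosing, suspension cells dosed at seeding; compounds at 0.001 μM-10 μM final, 48 h at culture conditions. Hoechst 33342 (2-5 μg/ml) added for 30 min, then fluorescence microscopy scoring of apoptotic nuclear fraction and apoptosis-specific morphology, reported as scores A-D.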

[6] = system: tumor cells; assay: Hoechst 33342 nuclear staining (48 h read-out)
How it was run: as §3

[7] = HT1080 cells, read-out: MTS proliferation assay IC50, HT1080
[8] = HeLa cells, read-out: MTS proliferation assay IC50, HeLa
[9] = Jily cells, read-out: MTS proliferation assay IC50, Jily
[10] = Jurkat cells, read-out: MTS proliferation assay IC50, Jurkat
[11] = HeLa cells, read-out: Mitochondrial membrane potential (read-out 48 h) HeLa
[12] = Jily cells, read-out: Mitochondrial membrane potential (read-out 48 h) Jily
[13] = Jurkat cells, read-out: Mitochondrial membrane potential (read-out 48 h) Jurkat
[14] = MCF7 cells, read-out: Mitochondrial membrane potential (read-out 48 h) MCF7
[15] = MRC5 cells, read-out: Hoechst 33342 nuclear staining EC50, MRC5
[16] = PBL, read-out: Hoechst 33342 nuclear staining EC50, PBL
[17] = HeLa cells, read-out: Hoechst 33342 nuclear staining EC50, HeLa
[18] = Jily cells, read-out: Hoechst 33342 nuclear staining EC50, Jily
[19] = Jurkat cells, read-out: Hoechst 33342 nuclear staining EC50, Jurkat

SMILES	IC50 [1] [µM]	IC50 [2, 7] [µM]	IC50 [2, 8] [µM]	IC50 [2, 9] [µM]	IC50 [2, 10] [µM]	EC50 [3] [µM]	EC50 [4, 11] [µM]	EC50 [4, 12] [µM]	EC50 [4, 13] [µM]	EC50 [4, 14] [µM]	EC50 [5, 15] [µM]	EC50 [5, 16] [µM]	EC50 [6, 17] [µM]	EC50 [6, 18] [µM]	EC50 [6, 19] [µM]	also measured
Nc1c(C(=O)c2cc(F)ccc2N2CCCCC2)oc2ccc(Cl)cc12 [Example 100]	0.01 to 0.1	0.01 to 0.1	0.1 to 1	0.01 to 0.1	0.01 to 0.1	> 1	0.1 to 1	0.01 to 0.1	0.01 to 0.1	0.1 to 1	0.1 to 1	> 1	0.1 to 1	0.1 to 1	0.01 to 0.1	
Nc1c(C(=O)c2cc(F)ccc2N2CCCCC2)oc2ccc(Cl)cc12 [Example 101]	0.1 to 1	0.01 to 0.1	0.1 to 1	0.1 to 1	0.01 to 0.1	> 1	0.1 to 1	0.01 to 0.1	0.01 to 0.1	0.1 to 1	0.1 to 1	> 1	0.1 to 1	0.1 to 1	0.01 to 0.1	
CN1CCN(c2ccc(F)cc2C(=O)c2oc3ccc(Cl)cc3c2N)CC1 [Example 102]	> 1	> 1	> 1	> 1	0.1 to 1	> 1	> 1	> 1	> 1	> 1	> 1	> 1	> 1	> 1	> 1	
Nc1c(C(=O)c2cc(F)ccc2N2CC=CCC2)oc2ccc(Cl)cc12 [Example 103]	0.01 to 0.1	0.01 to 0.1	0.01 to 0.1	0.01 to 0.1	0.01 to 0.1	> 1	0.01 to 0.1	0.01 to 0.1	0.01 to 0.1	0.01 to 0.1	0.01 to 0.1	> 1	0.01 to 0.1	0.01 to 0.1	0.01 to 0.1	
CC1CCCN(c2ccc(F)cc2C(=O)c2oc3ccc(Cl)cc3c2N)C1 (stereo not drawn) [Example 104]	0.1 to 1	0.1 to 1	0.1 to 1	0.1 to 1	0.1 to 1	> 1	0.1 to 1	0.1 to 1	0.1 to 1	0.1 to 1	0.1 to 1	> 1	0.1 to 1	0.1 to 1	0.1 to 1	
COc1ccc2oc(C(=O)c3cc(F)ccc3-n3ccnc3)cc2c1 [Example 105]	> 1	> 1	> 1	> 1	> 1	> 1	> 1	> 1	> 1	> 1	> 1	> 1	> 1	> 1	> 1	
O=C(c1cc2cc(OCc3ccccc3)ccc2o1)c1cc(F)ccc1N1CCOCC1 [Example 106]	> 1	> 1	> 1	> 1	> 1	> 1	> 1	> 1	> 1	> 1	> 1	> 1	> 1	> 1	> 1	
O=C(c1cc2cc(O)ccc2o1)c1cc(F)ccc1N1CCOCC1 [Example 107]	0.01 to 0.1	0.01 to 0.1	0.01 to 0.1	0.01 to 0.1	0.01 to 0.1	> 1	0.1 to 1	0.01 to 0.1	0.01 to 0.1	0.1 to 1	0.1 to 1	> 1	0.1 to 1	0.1 to 1	0.1 to 1	
CCOc1ccc2oc(C(=O)c3cc(F)ccc3N3CCOCC3)cc2c1 [Example 108]	0.01 to 0.1	0.01 to 0.1	0.01 to 0.1	0.01 to 0.1	0.01 to 0.1	> 1	0.1 to 1	0.01 to 0.1	0.01 to 0.1	0.1 to 1	0.01 to 0.1	> 1	0.01 to 0.1	0.01 to 0.1	0.01 to 0.1	
O=C(c1cc2cc(OCc3ccccc3)ccc2o1)c1cc(F)ccc1N1CC=CCC1 [Example 109]	> 1	> 1	> 1	> 1	> 1	> 1	> 1	> 1	> 1	> 1	> 1	> 1	> 1	> 1	> 1	
O=C(c1cc2cc(OCc3ccccc3)ccc2o1)c1cc(F)ccc1N1CCCCC1 [Example 110]	> 1	> 1	> 1	> 1	> 1	> 1	> 1	> 1	> 1	> 1	> 1	> 1	> 1	> 1	> 1	
CCOc1ccc(F)cc1C(=O)c1sc2ncccc2c1N [Example 113, 3-Amino-2-(2′-ethoxy-5-fluorobenzoyl)-thieno[2,3-b]pyridine]				0.1 to 1		> 1		0.1 to 1				> 1		0.1 to 1		IC50 ([1]; Homo sapiens): > 1 µM; IC50 ([2]; Homo sapiens, HT-1080, HT1080 cells, read-out: MTS proliferation assay IC50, HT1080): > 1 µM; IC50 ([2]; Homo sapiens, HeLa cells, read-out: MTS proliferation assay IC50, HeLa): 0.1 to 1 µM; IC50 ([2]; Homo sapiens, Jurkat cells, read-out: MTS proliferation assay IC50, Jurkat): 0.1 to 1 µM; EC50 ([4]; Homo sapiens, HeLa cells, read-out: Mitochondrial membrane potential (read-out 48 h) HeLa): > 1 µM; EC50 ([4]; Homo sapiens, Jurkat cells, read-out: Mitochondrial membrane potential (read-out 48 h) Jurkat): 0.1 to 1 µM; EC50 ([4]; Homo sapiens, MCF7 cells, read-out: Mitochondrial membrane potential (read-out 48 h) MCF7): > 1 µM; EC50 ([5]; Homo sapiens, MRC5 cells, read-out: Hoechst 33342 nuclear staining EC50, MRC5): > 1 µM; EC50 ([6]; Homo sapiens, HeLa cells, read-out: Hoechst 33342 nuclear staining EC50, HeLa): 0.1 to 1 µM; EC50 ([6]; Homo sapiens, Jurkat cells, read-out: Hoechst 33342 nuclear staining EC50, Jurkat): 0.1 to 1 µM
